Converted amounts (≈) assume the structure as drawn.

Holding throughout (format): functional
One experiment deals with MCF7. Description: Cytotoxicity against human MCF7 cells expressing estrogen receptor after 72 hrs by SRB assay. The note with it: MCF7, 72 h, read-out: ED50 (the source's name). A general note: The SRB assay estimates cell density from bound dye.
In a further experiment the test system is SK-BR-3. The experiment can be described thus: Cytotoxicity against estrogen receptor deficient human SKBR3 cells overexpressing human epidermal growth factor receptor 2 after 72 hrs by SRB assay. The conditions noted are these: SK-BR-3, 72 h, read-out: ED50 (the source's name).
Experiment [1] relates to ZR-75-1. The experiment can be described thus: Cytotoxicity against human ZR-75-1 cells expressing estrogen receptor and HER2 after 72 hrs by SRB assay. The conditions noted are these: ZR-75-1, 72 h, read-out: ED50 (the source's name).
The test system of another experiment is MDA-MB-231. The experiment can be described thus: Cytotoxicity against estrogen receptor deficient human MDA-MB-231 cells after 72 hrs by SRB assay. The note with it: MDA-MB-231, 72 h, read-out: ED50 (the source's name).
The next experiment deals with A549. The experiment can be described thus: Cytotoxicity against human A549 cells after 72 hrs by SRB assay. The note with it: A549, 72 h, read-out: ED50 (the source's name).
A further experiment relates to DU-145. The experiment can be described thus: Cytotoxicity against human DU145 cells after 72 hrs by SRB assay. The note with it: DU-145, 72 h, read-out: ED50 (the source's name).
For the next experiment, the system named is KB. The experiment can be described thus: Cytotoxicity against human KB cells after 72 hrs by SRB assay. The note with it: read-out: ED50 (the source's name).
Experiment [2] is described as follows: Cytotoxicity against vincristine-resistant human KBVIN cells after 72 hrs by SRB assay. The note with it: read-out: ED50 (the source's name).
Experiment [3] relates to ZR-75-1. Description: Selectivity ratio of ED50 for human MCF7 cells expressing estrogen receptor to ED50 for human ZR-75-1 cells expressing estrogen receptor and HER2.
In experiment [4] the test system is ZR-75-1. Description: Selectivity ratio of ED50 for estrogen receptor deficient human SKBR3 cells overexpressing HER2 to ED50 for human ZR-75-1 cells expressing estrogen receptor and HER2.

On to `CCc1cccc2c1ccc1c3occ(C)c3c(=O)oc21`, for which the EC50 is 0.2 µg/mL (≈ 0.719 µM) with MCF7; 0.1 µg/mL (≈ 0.359 µM) in the experiment on SK-BR-3; 0.1 µg/mL (≈ 0.359 µM) in the experiment on ZR-75-1 [1]; over 10 µg/mL in the experiment on MDA-MB-231; 10.6 µg/mL (≈ 38.1 µM) in the experiment with A549; 15.9 µg/mL (≈ 57.1 µM) in the experiment with DU-145. Besides, the figures for the EC50 (in the experiment with KB; in experiment [2]) were 13.1 µg/mL (≈ 47.1 µM) and 13.2 µg/mL (≈ 47.4 µM), respectively. In the experiment with ZR-75-1 [3], the “Ratio ED50” value was found to be 2.

Consider `Cc1coc2c1c(=O)oc1c3ccccc3ccc21`, for which the results for the EC50 with MCF7 and in the experiment on SK-BR-3 were 4 µg/mL (≈ 16 µM) and 1 µg/mL (≈ 4 µM), respectively.

For the compound `CCOc1cccc2c(O)c(-c3occ(C)c3C(=O)O)ccc12`, the EC50 with MCF7 came out at 7.5 µg/mL (≈ 24 µM); with SK-BR-3, 6 µg/mL (≈ 19.2 µM).

On to `Cc1cccc2c(OC(=O)c3ccoc3)cccc12`, for which the EC50 in the experiment on MCF7 and in the experiment with SK-BR-3 was over 20 µg/mL in each case.

In the case of `Cc1coc2c1c(=O)oc1cc(OC(C)C)ccc12`, the figures for the EC50 in the experiment on MCF7 and in the experiment on SK-BR-3 were 12 µg/mL (≈ 46.5 µM) and 10.8 µg/mL (≈ 41.8 µM), respectively.

For the compound `C#CCOc1cc(=O)oc2c1ccc1ccccc12`, the EC50 was determined as 20 µg/mL (≈ 79.9 µM) with MCF7 and 16 µg/mL (≈ 63.9 µM) in the experiment on SK-BR-3.

On to `COC(=O)c1c(C)coc1-c1ccc2ccccc2c1OC`, for which the EC50 with MCF7 is 8.5 µg/mL (≈ 28.7 µM); in the experiment on SK-BR-3, 6.5 µg/mL (≈ 21.9 µM).

For the compound `COc1cccc2c(O)c(-c3occ(C)c3C(=O)O)ccc12`, the EC50 with MCF7 was over 20 µg/mL; with SK-BR-3, 3.5 µg/mL (≈ 11.7 µM); with ZR-75-1 [1] it was 0.6 µg/mL (≈ 2.01 µM); with MDA-MB-231, over 10 µg/mL; in the experiment with A549, 10.1 µg/mL (≈ 33.9 µM); in the experiment with DU-145, 8.2 µg/mL (≈ 27.5 µM). Besides, the EC50 was found to be 9.7 µg/mL (≈ 32.5 µM) with KB and 8.9 µg/mL (≈ 29.8 µM) in [2]. Further, the “Ratio ED50” value in the experiment with ZR-75-1 [4] is on record as 6; in the experiment with ZR-75-1 [3], 33.

For `COc1c(-c2occ(C)c2C(=O)O)ccc2ccccc12`, the EC50 in the experiment on MCF7 was found to be 18 µg/mL (≈ 63.8 µM); with SK-BR-3, 16.7 µg/mL (≈ 59.2 µM).

As for `CCc1cccc2c(O)c(-c3occ(C)c3C(=O)O)ccc12`, the EC50 in the experiment with MCF7 was 3.3 µg/mL (≈ 11.1 µM); in the experiment with SK-BR-3 it was 1 µg/mL (≈ 3.37 µM); in the experiment with ZR-75-1 [1] it was 0.3 µg/mL (≈ 1.01 µM); in the experiment with MDA-MB-231, over 10 µg/mL; in the experiment with A549, 10.6 µg/mL (≈ 35.8 µM); in the experiment on DU-145, 8.7 µg/mL (≈ 29.4 µM). The EC50 with KB amounted to 9.1 µg/mL (≈ 30.7 µM); in experiment [2], 7 µg/mL (≈ 23.6 µM). The “Ratio ED50” value with ZR-75-1 [4] worked out at 3; in the experiment with ZR-75-1 [3] it was 10.

For `CCc1cccc2c(OC)c(-c3occ(C)c3C(=O)O)ccc12`, the EC50 was found to be 4.3 µg/mL (≈ 13.9 µM) in the experiment with MCF7 and 8.5 µg/mL (≈ 27.4 µM) with SK-BR-3.

As to `CCc1cccc2c(O)c(-c3occ(C)c3CO)ccc12`, the results for the EC50 in the experiment on MCF7 and in the experiment on SK-BR-3 were 12 µg/mL (≈ 42.5 µM) and 12.8 µg/mL (≈ 45.3 µM), respectively.

As to `CCc1cccc2c(O)c(-c3oc(C)c(C)c3C(=O)O)ccc12`, the EC50 in the experiment on MCF7 was found to be 8.5 µg/mL (≈ 27.4 µM); with SK-BR-3, 10.4 µg/mL (≈ 33.5 µM).

For the compound `CCc1coc(-c2ccc3c(CC)cccc3c2O)c1C(=O)O`, the figures for the EC50 in the experiment with MCF7 and in the experiment with SK-BR-3 were 5.1 µg/mL (≈ 16.4 µM) and 5.4 µg/mL (≈ 17.4 µM), respectively.

Consider `Cc1coc(-c2ccc3ccccc3c2O)c1CO`, for which the EC50 is 7 µg/mL (≈ 27.5 µM) in the experiment on MCF7 and 9.5 µg/mL (≈ 37.4 µM) with SK-BR-3.

As for `Cc1coc(-c2ccc3ccccc3c2O)c1C(=O)O`, the results for the EC50 with MCF7 and with SK-BR-3 were 6 µg/mL (≈ 22.4 µM) and 7 µg/mL (≈ 26.1 µM), respectively.

Turning to `CCc1cccc2c(OC)c(-c3occ(C)c3C(=O)OC)ccc12`, the EC50 came out at 2.5 µg/mL (≈ 7.71 µM) in the experiment with MCF7; 1.2 µg/mL (≈ 3.7 µM) in the experiment with SK-BR-3; 1.3 µg/mL (≈ 4.01 µM) in the experiment with ZR-75-1 [1]; 2.3 µg/mL (≈ 7.09 µM) in the experiment with MDA-MB-231; 1.5 µg/mL (≈ 4.62 µM) in the experiment on A549; 2.2 µg/mL (≈ 6.78 µM) with DU-145. For the same compound, the EC50 came out at 1.7 µg/mL (≈ 5.24 µM) in the experiment on KB and 1.3 µg/mL (≈ 4.01 µM) in experiment [2].

`CC/C(=C(\c1ccccc1)c1ccc(OCCN(C)C)cc1)c1ccccc1` [TAMOXIFEN]: the EC50 in the experiment with MCF7 and in the experiment with SK-BR-3 was 5 µg/mL (≈ 13.5 µM) throughout.
